The assay has as its target T1, human DYRK1A (Homo sapiens, UniProt Q13627).
T1 construct: host or cells: E. coli BL21(DE3)
Nature of the assay: ELISA DYRK1A non-radioactive phosphorylation assay (HT-PRD substrate). Type of assay: biochemical. On the procedure:
In order to determine the effectiveness of the DYRK1A inhibitors of the invention, a series of ELISA assays were performed, along with Western Blot assays.
The ELISA assays were devised as a modified form of the assay described in Liu et al. “An ELISA DYRK1A non-radioactive assay suitable for the characterization of inhibitors,” F1000Research 2017, 6:42 (doi: 10.12688/f1000research.10582.1), incorporated by reference herein in its entirety.
Specifically, human DYRK1A (Addgene #38913) and HT-PRD (Addgene #87755) plasmids were obtained from Addgene and were expressed and purified using Ni affinity chromatography, as explained below. Proteins were quantified by the conventional Bradford method and stored at −80° C. until used.
HT-PRD was diluted in dilution buffer (25 mM Tris-HCl, pH 7.4 and 100 mM NaCl) to 4 ng/μL and used to coat a 96-well plate (BD Falcon #353072) with 100 μL per well at 4° C. overnight.
The wells were next washed with dilution buffer 3 times to remove unbound materials, and then the wells were blocked with 150 μL blocking buffer (2% BSA, 1×PBS, and 0.25% Tween 20) at room temperature for 60 minutes with shaking on a shaker.
After the 60-minute shaking period, the wells were washed thoroughly with dilution buffer 3 times to prepare for the phosphorylation in the next step.
Duplicate DYRK1A phosphorylation reactions were performed in the wells with 100 μL reaction mixtures each containing 25 mM HEPES, pH 7.4, 100 mM NaCl, 5 mM MgCl2, 100 μM ATP, 1% DMSO, and 200 ng/mL DYRK1A. Separate reaction mixtures included a no-inhibitor DMSO control, harmine inhibitor, and different concentrations of the inhibitors of the present invention. The plate was left on a temperature-controlled shaker for 30 minutes at 30° C.
The phosphorylation reactions were terminated after the 30-minute shaking, by the addition of 20 mM EDTA. The wells were then washed with PBST (0.02% Tween 20).
HT-PRD phosphorylation was determined by the sandwich antibody staining protocol. […] The extent of the phosphorylation reactions was monitored at λ=405 nm. […]
(In general: ELISA stands for enzyme-linked immunosorbent assay.)

Setting [1] is: tested at 5 μg/mL, significantly greater than DMSO and any of the other fractions at the same level of use (FIG. 1).

Consider `COc1ccc2c3c([nH]c2c1)C(C)=NCC3` [harmaline, reference compound], for which the “inhibition of DYRK1A” value (reference inhibitor, text says 100 μg/mL, sample table lists harmine 2 μM and 10 μM (FIG. 1)) is reported as “showed inhibition of DYRK1A”.

On to `Cc1c(O)cc(C(C)C)c(O)c1CC1=CC(=O)C(C(C)C)=CC1=O` [compound XVII], for which the “inhibition of DYRK1A” value under setting [1] is “very pronounced inhibition of DYRK1A”.

Regarding `Cc1c(O)cc(C(C)C)c(O)c1Cc1cc(O)c(C(C)C)cc1O` [compound XVIII], under setting [1], the “inhibition of DYRK1A” value is given as “very pronounced inhibition of DYRK1A”.

The values are drawn from US11603343B2, “Inhibition of DYRK1A kinase” (Ankh Life Sciences Limited, priority 2020, dated 2023).
